These results are taken from patent US20220267258A1, “ROBENIDINE ANALOGS AS POTENT ANTIMALARIALS AGAINST DRUG-RESISTANT PLASMODIUM FALCIPARUM” (OREGON HEALTH & SCIENCE UNIVERSITY, priority 2021, published 2022).

Data set [1] concerns P. falciparum strain D6. In words: SYBR Green growth inhibition assay, P. falciparum D6. In kind it is cell-based, Plasmodium falciparum. As to conditions: pan-sensitive strain, 72 hr, asynchronous cultures in human erythrocytes; read-out: IC50 D6.
Data set [2] can be described thus: murine microsomal stability. As to conditions: from t1/2, assumed murine hepatic blood flow 90 mL/min/kg. As for the experimental part: To investigate the relationship between the aminoguanidines' in vivo efficacy and their metabolic properties, the murine microsomal stability of a selection of aminoguanidines was evaluated (Table 6). Robenidine, 16, 21, 1, and the control compound ketanserin were incubated with pooled murine liver microsomes and monitored for degradation by LC/MS/MS for one hour. The concentration vs. time plot for each compound was used to determine its biological half-life (t1/2) and predicted intrinsic clearance (Clint).
Metabolic stability studies of selected aminoguanidines were performed at ChemPartner, Shanghai, China. Compounds were incubated at 37° C. and 1 μM concentration in murine liver microsomes (Corning) for one hour at a protein concentration of 0.5 mg/mL in potassium phosphate buffer at pH 7.4 containing 1.0 mM EDTA. The metabolic reaction was initiated by NADPH and quenched with ice-cold acetonitrile at 15 minute increments up to one hour.

Data set [3] deals with P. falciparum Dd2. Kind of data set: SYBR Green growth inhibition assay, P. falciparum Dd2. It is filed as cell-based, Plasmodium falciparum. As to conditions: multi-drug resistant strain, 72 hr; read-out: IC50 Dd2.
For data set [4], the system named is P. falciparum Tm90-C2B. In words: SYBR Green growth inhibition assay, P. falciparum Tm90-C2B. It is filed as cell-based, Plasmodium falciparum. As to conditions: multi-drug resistant clinical isolate, also atovaquone resistant, 72 hr; read-out: IC50 Tm90-C2B.
For data set [5], the system named is Plasmodium yoelii. Kind of data set: modified 4-day Peters test, murine malaria. In kind it is in vivo, mice. How it is done: In this modified 4-day Peters test,^41 mice were inoculated with parasites from a donor mouse (day 0), and then dosed orally with drugs on each of the subsequent four days (days 1-4). On day 5 of the experiment, the parasitemia for each mouse was determined microscopically by examining methanol-fixed and Giemsa-stained blood smears. The ED50 represents the interpolated dose of a compound at which parasitemia was suppressed to one half that of untreated controls. Similarly, the ED90 represents the dose at which parasitemia is suppressed ten-fold. Mice were considered cured of their infection if no parasites were detected in the blood 30 days from the first drug administration, and the non-recrudescence dose (NRD) represents the lowest dose to achieve a cure.
The in vivo ED50 and ED90 of selected aminoguanidines was measured using a modified 4-day Peters test. Female CF1 mice from Charles River Laboratories were inoculated intravenously with approximately 2.5-5.0×10^4 parasitized erythrocytes (murine malaria P. yoelii, Kenya strain MR4 MRA-428) from a donor mouse (experiment day zero). On the following four days (experiment days 1-4), solutions of the test compounds in PEG-300 (or PEG-300 only for control mice) were administered by oral gavage once daily. […] Parasitemia of each mouse was determined by microscopic examination of Giemsa stained blood smears on day 5. ED50 and ED90 values were assessed by generating dose-response curves relative to untreated controls using Graphpad Prism (v. 8). Mice were considered cured of malarial infection if they maintained 0% parasitemia at experiment day 30. The procedures involved, together with all matters relating to the care, handling, and housing of the animals used in this study, were approved by the Portland VA Medical Center Institutional Animal Care and Use Committee.

Data set [6] has as its system P. berghei. As to conditions: murine species P. berghei, 1970; cited from earlier work.
Data set [7] concerns human hepatoma derived HepG2 cells. Kind of data set: HepG2 cytotoxicity assay (resazurin). It is filed as cell-based. To be noted: HepG2, 24 hr drug, 24 hr recovery. (Alamar Blue is a resazurin reagent that responds to reducing activity.)
Data set [8] concerns P. falciparum A6. Kind of data set: SYBR Green growth inhibition assay, P. falciparum A6. It is filed as cell-based, Plasmodium falciparum. As to conditions: mutant line resistant to respiratory antagonists, 72 hr; read-out: IC50 A6.
Data set [9] deals with Toxoplasma gondii. As to conditions: cited from earlier work.
In data set [10] the test system is Babesia microti. As to conditions: oral; cited from earlier work.
Where [11] appears, read: oral gavage days 1-4, parasitemia day 5.

Usually IC50 stands for the concentration at which inhibition is half-maximal. Consider `N=C(N/N=C/c1ccc(Cl)cc1)N/N=C/c1ccc(Cl)cc1` [Robenidine], for which the IC50 stood at 324 nM in [1]; 814 nM in [3]; 1320 nM in data set [4]; 30000 nM in data set [7]; 410 nM in data set [8]. Also, in data set [2], the “Predicted Clint” value was 34.40 mL/min/kg. Also, the “P. yoelii ED50” value in data set [5] (setting [11]) came to 1.6 mg/kg/day. Moreover, the “P. yoelii ED90” value in data set [5] (setting [11]) turned out to be 4.9 mg/kg/day. For the same compound, the “P. yoelii NRD (non-recrudescence dose, cure dose)” value in data set [5] (oral, doses up to 25 mg/kg/day, no parasites at day 30) is listed as over 25 mg/kg/day. Also, the activity in vivo entry in data set [6] was “moderate activity”. In data set [9], the “in vitro IC50” value was 0.03 µg/mL. For the same compound, the “murine in vivo non-recrudescence dose” value in data set [10] is 100 mg/kg/day.
